Test results: ChEMBL document CHEMBL1201862, “PubChem BioAssay data set” (2004)
Values belong to the compound of their own block, whether it stands above or below them. Active and inactive are the calls of the source.

What was measured:
Mu-type opioid receptor = Mu-type opioid receptor (Homo sapiens, UniProt P35372); assay type: functional, cell-based;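 also: U2OS cells with beta-arrestin recruitment to OPRM1 by beta-gal complementation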
[1] = target: 5-hydroxytryptamine receptor 2A (Mus musculus, UniProt P35363); assay type: functional, cell-based;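 also: CHO-K1 cells with tagged receptor and beta-arrestin; agonist potency measured as compound-induced activation of the receptor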
5-hydroxytryptamine receptor 2A, sequence (P35363 whole entry, the tested form may be a part): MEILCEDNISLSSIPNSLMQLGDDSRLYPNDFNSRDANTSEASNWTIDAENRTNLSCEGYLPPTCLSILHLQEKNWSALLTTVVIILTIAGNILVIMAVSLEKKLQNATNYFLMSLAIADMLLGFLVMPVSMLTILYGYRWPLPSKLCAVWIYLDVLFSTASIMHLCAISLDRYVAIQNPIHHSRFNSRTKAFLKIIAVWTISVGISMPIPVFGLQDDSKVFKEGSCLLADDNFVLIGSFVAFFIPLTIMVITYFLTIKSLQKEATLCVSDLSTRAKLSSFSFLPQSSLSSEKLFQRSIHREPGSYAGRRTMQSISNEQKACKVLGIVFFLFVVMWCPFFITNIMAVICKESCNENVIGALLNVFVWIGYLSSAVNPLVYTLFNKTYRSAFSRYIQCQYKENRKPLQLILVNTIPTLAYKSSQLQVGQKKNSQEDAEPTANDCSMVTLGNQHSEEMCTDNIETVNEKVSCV

[2] = target: T1, Oxysterols receptor LXR-beta (Homo sapiens, UniProt P55055); assay type: functional, cell-based;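 also: Cell-based luminescence dose-response assay of agonist activity at LXR, run as a confirmatory counterscreen to a daf-12 agonist screen; HEK293 cells with Gal4-LXR fusion and GAL4-driven luciferase reporter; agonist potency from rising luciferase signal of a Gal4-LXR reporter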
T1 sequence (P55055 whole entry): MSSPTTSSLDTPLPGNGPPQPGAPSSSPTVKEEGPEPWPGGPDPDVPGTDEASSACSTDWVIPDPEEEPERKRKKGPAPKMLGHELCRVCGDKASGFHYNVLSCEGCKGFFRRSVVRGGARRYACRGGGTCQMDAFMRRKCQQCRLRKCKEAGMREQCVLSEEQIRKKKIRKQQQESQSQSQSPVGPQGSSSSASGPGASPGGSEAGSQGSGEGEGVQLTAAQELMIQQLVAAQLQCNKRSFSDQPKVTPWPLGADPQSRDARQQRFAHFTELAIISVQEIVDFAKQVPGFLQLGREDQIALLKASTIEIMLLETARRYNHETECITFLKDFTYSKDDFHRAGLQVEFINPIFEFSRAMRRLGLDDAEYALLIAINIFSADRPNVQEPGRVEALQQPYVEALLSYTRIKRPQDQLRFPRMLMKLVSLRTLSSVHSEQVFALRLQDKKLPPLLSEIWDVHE

[3] = target: SWI/SNF-related matrix-associated actin-dependent regulator of chromatin subfamily A member 2 (Homo sapiens, UniProt P51531); assay: Luminescence-based cell-based high throughput dose response assay to identify activators of the function of SWI/SNF related, matrix associated, actin dependent regulator of chromatin, subfamily a, member 2 (SMARCA2, BRM).; assay type: functional
SWI/SNF-related matrix-associated actin-dependent regulator of chromatin subfamily A member 2, sequence (P51531 whole entry): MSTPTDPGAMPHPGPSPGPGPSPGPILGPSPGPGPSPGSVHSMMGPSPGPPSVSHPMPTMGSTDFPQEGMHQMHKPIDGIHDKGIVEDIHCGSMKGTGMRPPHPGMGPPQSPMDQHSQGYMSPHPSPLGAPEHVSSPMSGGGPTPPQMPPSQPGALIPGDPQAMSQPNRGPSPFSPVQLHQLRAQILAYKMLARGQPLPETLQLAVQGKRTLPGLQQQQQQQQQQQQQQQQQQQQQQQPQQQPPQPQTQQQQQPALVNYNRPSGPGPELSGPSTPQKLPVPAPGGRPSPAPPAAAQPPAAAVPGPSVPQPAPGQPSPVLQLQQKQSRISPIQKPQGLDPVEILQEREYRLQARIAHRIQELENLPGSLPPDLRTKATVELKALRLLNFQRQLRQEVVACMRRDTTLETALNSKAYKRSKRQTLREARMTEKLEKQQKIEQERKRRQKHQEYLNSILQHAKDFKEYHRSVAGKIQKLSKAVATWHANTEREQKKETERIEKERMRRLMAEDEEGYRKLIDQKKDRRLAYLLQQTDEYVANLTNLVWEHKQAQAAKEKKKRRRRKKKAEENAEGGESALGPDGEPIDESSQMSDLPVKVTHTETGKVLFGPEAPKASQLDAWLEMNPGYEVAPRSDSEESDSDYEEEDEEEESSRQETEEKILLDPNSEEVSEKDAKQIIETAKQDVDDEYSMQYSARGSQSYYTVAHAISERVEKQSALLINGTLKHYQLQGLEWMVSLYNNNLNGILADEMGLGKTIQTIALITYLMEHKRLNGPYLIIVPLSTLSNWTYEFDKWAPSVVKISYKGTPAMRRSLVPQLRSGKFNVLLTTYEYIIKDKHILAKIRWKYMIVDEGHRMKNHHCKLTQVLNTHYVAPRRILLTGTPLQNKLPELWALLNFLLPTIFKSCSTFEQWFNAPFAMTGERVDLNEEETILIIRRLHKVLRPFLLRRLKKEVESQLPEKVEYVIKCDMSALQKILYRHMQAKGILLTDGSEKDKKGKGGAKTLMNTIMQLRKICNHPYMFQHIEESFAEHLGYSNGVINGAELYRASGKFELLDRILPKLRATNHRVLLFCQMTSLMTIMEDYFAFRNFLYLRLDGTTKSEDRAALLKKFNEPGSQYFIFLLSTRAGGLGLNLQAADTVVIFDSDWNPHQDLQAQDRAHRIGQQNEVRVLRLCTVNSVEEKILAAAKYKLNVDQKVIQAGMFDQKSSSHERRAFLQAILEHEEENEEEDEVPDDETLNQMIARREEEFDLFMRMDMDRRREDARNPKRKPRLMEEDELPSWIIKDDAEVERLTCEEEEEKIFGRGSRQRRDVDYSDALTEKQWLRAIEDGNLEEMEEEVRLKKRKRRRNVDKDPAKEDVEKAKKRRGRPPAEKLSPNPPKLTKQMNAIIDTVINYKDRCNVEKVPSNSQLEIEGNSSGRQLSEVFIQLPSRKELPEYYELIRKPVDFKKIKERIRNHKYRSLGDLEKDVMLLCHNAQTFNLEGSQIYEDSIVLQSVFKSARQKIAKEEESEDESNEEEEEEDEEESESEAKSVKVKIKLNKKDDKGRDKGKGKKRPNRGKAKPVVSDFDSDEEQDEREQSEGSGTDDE

[4] = Counterscreen for activators of the function of SWI/SNF related, matrix associated, actin dependent regulator of chromatin, subfamily a, member 2 (SMARCA2, BRM): Luminescence-based cell-based high throughput dose response assay to identify non-selective compounds using the VP16 reporter assay.; assay type: functional
[5] = CEM21 lymphoblast cell cytotoxicity, dose response, cytotoxicity control for viral fusion inhibitor project, CellTiter-Glo luminescence, cherry-picked (AID 652042); assay type: functional, cell-based;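 also: potency for signal decrease meaning cytotoxicity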
[6] = inhibitors of clade B AD8 Env fusion, dose response, cell-based, cherry-pick (AID 652062); assay type: functional;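 also: luciferase signal from cell-cell fusion driven by HIV-1 clade B AD8 Env; potency is for inhibitors of fusion seen as a drop in luminescence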
[7] = inhibitors of HIV Env-driven cell fusion, dose response, cherry-pick (AID 652057); assay type: functional, cell-based
[8] = off-target signal loss in HeLa-CEM21 co-culture – HeLa F-luc CTL cells, cherry-picked, counter-screen for HIV-1 Env fusion inhibitor project, dose response (AID 652040); assay type: functional, cell-based;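 also: potency for signal decrease marking cytotoxic or nonspecific inhibition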
[9] = ZM109 Env clade C HIV-1 fusion inhibitors, dose response, HeLa effector, CEM target cells, luciferase, cherry-pick (AID 652058); assay type: functional, cell-based
[10] = target: 26S proteasome non-ATPase regulatory subunit 14 (Homo sapiens, UniProt O00487); assay: inhibition of proteasome subunit RPN11 – biochemical, fluorescence polarization, uHTS hits, confirmation (AID 602368); assay type: functional
26S proteasome non-ATPase regulatory subunit 14, sequence (O00487 whole entry): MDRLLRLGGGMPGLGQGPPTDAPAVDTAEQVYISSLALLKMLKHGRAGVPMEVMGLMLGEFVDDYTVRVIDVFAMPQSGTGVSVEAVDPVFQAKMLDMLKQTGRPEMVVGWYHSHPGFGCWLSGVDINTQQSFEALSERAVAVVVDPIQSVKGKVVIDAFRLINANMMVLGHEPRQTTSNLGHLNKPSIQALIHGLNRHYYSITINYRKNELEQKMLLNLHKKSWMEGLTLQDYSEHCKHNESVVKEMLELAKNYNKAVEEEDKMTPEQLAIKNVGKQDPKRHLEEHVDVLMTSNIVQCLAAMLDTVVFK

[11] = target: Tyrosine-protein phosphatase non-receptor type 5 (Homo sapiens, UniProt P54829); assay: STEP phosphatase inhibitors, confirmation, biochemical, fluorescence intensity, uHTS hits (AID 602372); assay type: functional; details: read-out: IC50_Mean
[12] = target: Tyrosine-protein phosphatase non-receptor type 11 (Homo sapiens, UniProt Q06124); assay: SHP2 phosphatase inhibition, dose response, selectivity assay for STEP inhibitor project, biochemical (AID 602367); assay type: functional; details: read-out: IC50_Mean
Prothrombin = Prothrombin (Bos taurus, UniProt P00735); assay: thrombin inhibition, dose response, biochemical, fluorescence polarization, uHTS hits (AID 602369); assay type: functional
[13] = target: Dual specificity protein phosphatase 3 (Homo sapiens, UniProt P51452); assay: VHR phosphatase inhibition, dose response, selectivity assay for STEP inhibitor project, biochemical (AID 602374); assay type: functional; details: read-out: IC50_Mean
Dual specificity protein phosphatase 3, sequence (P51452 whole entry): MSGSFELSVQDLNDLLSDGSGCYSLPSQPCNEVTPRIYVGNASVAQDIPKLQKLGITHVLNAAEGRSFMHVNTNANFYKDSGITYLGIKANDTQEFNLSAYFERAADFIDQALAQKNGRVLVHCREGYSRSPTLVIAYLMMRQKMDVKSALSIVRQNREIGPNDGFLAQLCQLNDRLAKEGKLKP

[14] = target: T2, Tyrosine-protein phosphatase non-receptor type 22 (Homo sapiens, UniProt Q9Y2R2); assay: PTPN22 phosphatase inhibition, dose response, selectivity assay for STEP inhibitor project, biochemical (AID 624241); assay type: functional
T2 sequence (Q9Y2R2 whole entry): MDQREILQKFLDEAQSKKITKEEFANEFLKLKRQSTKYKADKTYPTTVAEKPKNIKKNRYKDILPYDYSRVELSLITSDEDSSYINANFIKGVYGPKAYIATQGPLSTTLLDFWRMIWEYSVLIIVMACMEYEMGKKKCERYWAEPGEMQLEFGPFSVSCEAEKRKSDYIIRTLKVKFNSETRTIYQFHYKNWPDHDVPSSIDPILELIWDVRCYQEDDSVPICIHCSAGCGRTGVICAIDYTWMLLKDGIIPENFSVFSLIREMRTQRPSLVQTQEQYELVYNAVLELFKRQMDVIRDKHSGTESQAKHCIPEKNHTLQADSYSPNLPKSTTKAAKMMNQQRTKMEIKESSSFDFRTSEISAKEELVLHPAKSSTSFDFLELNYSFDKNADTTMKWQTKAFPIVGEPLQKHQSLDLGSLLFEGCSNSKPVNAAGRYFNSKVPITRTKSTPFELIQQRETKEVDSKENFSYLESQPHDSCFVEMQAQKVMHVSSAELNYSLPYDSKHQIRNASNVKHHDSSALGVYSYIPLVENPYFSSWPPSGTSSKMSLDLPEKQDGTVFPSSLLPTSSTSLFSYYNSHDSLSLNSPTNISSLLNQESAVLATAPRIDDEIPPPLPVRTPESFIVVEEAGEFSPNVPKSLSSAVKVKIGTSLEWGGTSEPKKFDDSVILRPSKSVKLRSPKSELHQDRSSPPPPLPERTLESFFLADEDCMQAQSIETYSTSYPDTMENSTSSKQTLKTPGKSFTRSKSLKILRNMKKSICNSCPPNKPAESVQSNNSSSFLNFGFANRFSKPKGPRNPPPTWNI

[15] = target: T3, Carboxy-terminal domain RNA polymerase II polypeptide A small phosphatase 1 (Homo sapiens, UniProt Q9GZU7); assay: inhibitors of CTDSP1, concentration-response testing, biochemical assay, absorbance-based, actives from ultra-high-throughput screening (AID 540297); assay type: functional
T3 sequence (Q9GZU7 whole entry): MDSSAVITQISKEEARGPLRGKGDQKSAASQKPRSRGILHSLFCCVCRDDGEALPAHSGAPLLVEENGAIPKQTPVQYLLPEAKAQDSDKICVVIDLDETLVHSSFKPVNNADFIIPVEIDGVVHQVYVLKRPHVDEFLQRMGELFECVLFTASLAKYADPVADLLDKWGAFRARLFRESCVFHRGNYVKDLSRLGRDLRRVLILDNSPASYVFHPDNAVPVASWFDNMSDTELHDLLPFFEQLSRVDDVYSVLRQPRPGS

[16] = target: 72 kDa type IV collagenase (Homo sapiens, UniProt P08253); assay: Dose Response validation of uHTS RPN11 inhibitor hits using a MMP-2 Fluorescence assay.; assay type: functional
72 kDa type IV collagenase, sequence (P08253 whole entry): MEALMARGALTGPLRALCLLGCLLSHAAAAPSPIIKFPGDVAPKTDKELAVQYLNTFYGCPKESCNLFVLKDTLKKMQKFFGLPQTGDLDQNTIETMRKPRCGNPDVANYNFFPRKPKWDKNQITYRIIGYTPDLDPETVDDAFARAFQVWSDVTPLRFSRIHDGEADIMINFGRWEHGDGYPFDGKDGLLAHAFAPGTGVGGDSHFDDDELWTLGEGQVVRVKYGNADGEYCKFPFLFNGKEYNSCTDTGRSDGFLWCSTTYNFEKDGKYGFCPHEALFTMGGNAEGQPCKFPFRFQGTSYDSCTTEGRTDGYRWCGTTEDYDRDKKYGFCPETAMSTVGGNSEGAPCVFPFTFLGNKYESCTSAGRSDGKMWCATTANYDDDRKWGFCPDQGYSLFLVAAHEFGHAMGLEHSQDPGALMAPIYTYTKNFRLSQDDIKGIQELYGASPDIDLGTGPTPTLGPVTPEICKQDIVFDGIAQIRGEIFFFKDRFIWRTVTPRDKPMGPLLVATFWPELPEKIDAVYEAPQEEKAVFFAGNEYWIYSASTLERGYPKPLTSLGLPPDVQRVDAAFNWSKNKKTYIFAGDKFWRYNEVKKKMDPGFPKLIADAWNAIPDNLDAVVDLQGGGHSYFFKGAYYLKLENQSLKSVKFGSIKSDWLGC

Albumin = Albumin (Bos taurus, UniProt P02769); assay: Counterscreen for inhibitors of T-cell receptor (TCR)-CD3 interaction: Fluorescence-based biochemical high throughput dose response assay to identify inhibitors of T-cell receptor (TCR)-CD3 interaction using a TAMRA-labeled BSA probe.; assay type: functional
[17] = cytotoxicity toward NIH3T3 fibroblasts, dose response, counter-screen, cell-based, ATP luminescence, mouse fibroblasts (AID 2010); assay type: functional;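 also: cells exposed to compound for about 90 hours before reading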
[18] = inhibitors of intracellular T. cruzi replication, confirmation, NIH3T3 host cells, beta-gal luminescence (AID 2044); assay type: functional, cell-based;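 also: intracellular parasites grown in NIH/3T3 mouse fibroblasts as host cells; luminescent beta-galactosidase reporter signal from transgenic T. cruzi replicating inside host cells; inhibitors lower the luminescence signal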
[19] = target: COUP transcription factor 2 (Homo sapiens, UniProt P24468); assay: Luminescence-based cell-based high throughput dose response assay to identify inhibitors of COUP-TFII (NR2F2).; assay type: functional;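 also: HEK293 cells transiently cotransfected with COUP-TFII expression vector and reporter; luciferase reporter luminescence driven by COUP-TFII from the pX2-168 reporter plasmid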
COUP transcription factor 2, sequence (P24468 whole entry): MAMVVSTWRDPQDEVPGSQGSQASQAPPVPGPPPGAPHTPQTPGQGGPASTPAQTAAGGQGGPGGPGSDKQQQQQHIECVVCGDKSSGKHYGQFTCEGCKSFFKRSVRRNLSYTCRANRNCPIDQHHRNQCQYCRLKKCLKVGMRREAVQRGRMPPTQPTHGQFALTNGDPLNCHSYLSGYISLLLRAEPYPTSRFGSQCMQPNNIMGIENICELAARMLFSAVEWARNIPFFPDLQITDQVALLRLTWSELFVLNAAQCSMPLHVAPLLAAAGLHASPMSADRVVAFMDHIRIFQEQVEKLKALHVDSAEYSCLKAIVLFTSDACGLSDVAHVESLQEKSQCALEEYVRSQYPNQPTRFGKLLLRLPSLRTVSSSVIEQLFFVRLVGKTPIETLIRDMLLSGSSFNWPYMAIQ

[20] = target: T4, Sentrin-specific protease 8 (Homo sapiens, UniProt Q96LD8); assay type: functional
T4 sequence (Q96LD8 whole entry): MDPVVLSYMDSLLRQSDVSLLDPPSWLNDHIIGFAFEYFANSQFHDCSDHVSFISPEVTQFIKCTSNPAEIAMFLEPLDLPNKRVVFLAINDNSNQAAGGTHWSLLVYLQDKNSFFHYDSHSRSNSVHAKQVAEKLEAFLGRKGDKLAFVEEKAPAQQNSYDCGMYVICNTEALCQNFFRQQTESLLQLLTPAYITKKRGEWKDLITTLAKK

[21] = target: T4, Sentrin-specific protease 8; assay type: functional; remark: listed apart in the source
[22] = target: Metabotropic glutamate receptor 3 (Rattus norvegicus, UniProt P31422); assay: mGlu3 negative allosteric modulator potency, dose response, HEK/GIRK cells, thallium flux, rat (AID 651839); assay type: functional
Metabotropic glutamate receptor 3, sequence (P31422 whole entry): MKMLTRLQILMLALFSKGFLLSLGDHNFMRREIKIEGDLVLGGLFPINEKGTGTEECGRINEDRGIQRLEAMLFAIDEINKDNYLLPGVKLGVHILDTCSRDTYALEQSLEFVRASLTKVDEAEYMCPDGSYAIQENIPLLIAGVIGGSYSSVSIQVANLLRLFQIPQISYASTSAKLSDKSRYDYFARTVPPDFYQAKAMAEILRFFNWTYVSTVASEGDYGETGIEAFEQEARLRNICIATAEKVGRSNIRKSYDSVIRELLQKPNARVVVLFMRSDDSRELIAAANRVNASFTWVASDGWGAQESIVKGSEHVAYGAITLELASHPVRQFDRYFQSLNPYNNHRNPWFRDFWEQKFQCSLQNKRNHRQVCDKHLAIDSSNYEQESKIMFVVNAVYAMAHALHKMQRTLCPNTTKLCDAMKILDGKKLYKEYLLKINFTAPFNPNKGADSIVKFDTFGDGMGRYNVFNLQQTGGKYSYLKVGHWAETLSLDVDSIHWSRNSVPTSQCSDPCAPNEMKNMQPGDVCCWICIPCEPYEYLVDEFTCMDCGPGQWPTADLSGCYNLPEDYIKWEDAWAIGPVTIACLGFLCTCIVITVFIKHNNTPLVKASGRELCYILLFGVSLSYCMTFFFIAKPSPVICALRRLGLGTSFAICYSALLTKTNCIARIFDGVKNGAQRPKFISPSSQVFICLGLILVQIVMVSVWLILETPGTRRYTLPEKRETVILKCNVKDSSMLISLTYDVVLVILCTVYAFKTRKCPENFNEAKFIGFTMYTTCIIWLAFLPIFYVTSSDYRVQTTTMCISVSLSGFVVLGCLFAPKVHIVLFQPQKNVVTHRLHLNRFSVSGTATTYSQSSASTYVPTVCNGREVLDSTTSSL

Mu-type opioid receptor, sequence (P35372 whole entry): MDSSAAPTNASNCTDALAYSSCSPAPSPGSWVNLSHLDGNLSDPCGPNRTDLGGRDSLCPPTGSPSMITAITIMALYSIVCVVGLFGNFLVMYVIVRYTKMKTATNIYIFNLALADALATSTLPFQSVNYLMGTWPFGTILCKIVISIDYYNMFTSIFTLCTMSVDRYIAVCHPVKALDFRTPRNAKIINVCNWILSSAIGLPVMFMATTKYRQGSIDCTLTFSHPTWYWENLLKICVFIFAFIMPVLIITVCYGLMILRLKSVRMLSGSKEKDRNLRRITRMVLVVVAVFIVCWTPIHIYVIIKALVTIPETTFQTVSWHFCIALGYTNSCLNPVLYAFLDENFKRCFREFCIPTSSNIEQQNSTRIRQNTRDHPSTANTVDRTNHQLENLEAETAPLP

EC50 (Mu-type opioid receptor): 92.5 µM (inactive)
EC50 [1]: 18.4 µM (inactive)
SMILES: O=C(CNCc1cccs1)Nc1cc(S(=O)(=O)N2CCCC2)ccc1Cl

SMILES: CCCc1nc2c(C)cc(Br)cn2c1Cc1ccc(C)cc1
EC50 (cells): > 67.5 µM (inactive)
EC50 [2]: > 67.5 µM (inactive)

SMILES: Cc1cccc(CSc2ccc(-c3cccs3)nn2)c1
EC50 [3]: > 91.1 µM (inactive)
EC50 [4]: > 91.1 µM (inactive)

SMILES: CCOc1cccc(-c2nnc3sc(C4CCCCC4)nn23)c1
AC50 [5]: 49.9 µM (active)
AC50 [6]: 7.17 µM (active)
AC50 [7]: 5.97 µM (active)
AC50 [8]: 46 µM (active)
AC50 [9]: 21.4 µM (active)

IC50 [10]: 22.7 µM (active)
IC50 [11]: 16.5 µM (active)
IC50 [12]: 5.05 µM (active)
IC50 (Prothrombin): > 100 µM (inactive)
IC50 [13]: 2.84 µM (active)
IC50 [14]: 30.2 µM (inactive)
IC50 [15]: 7.91 µM (active)
IC50 [16]: > 100 µM (inactive)
SMILES: O=C(N/N=C/c1cccnc1)c1ccc(NC(=O)c2cccc(Cl)c2)cc1

SMILES: COc1ccc(NS(=O)(=O)c2cc(NC(=O)/C=C/c3cc(OC)c(OC)c(OC)c3)ccc2N2CCCCC2)cc1
IC50 (Albumin): > 94.1 µM (inactive)
EC50 [17]: > 60 µM (not active)
EC50 [18]: 1.63 µM (active)

IC50 [19]: 13.6 µM (inactive)
SMILES: CCOC(=O)N1CCC(Nc2ncnc3c2cnn3-c2ccc(C)cc2C)CC1

SMILES: COc1ccc2c(c1)C(=O)N(c1ccccc1OC)C(=O)C2
IC50 [20]: 15.4 µM (active)
IC50 [21]: > 100 µM (inactive)

IC50 [22]: 2.17 µM
SMILES: COc1ncc(-c2ccc3cc(C(=O)N4CCCC(CO)C4)ccc3c2)cn1 (stereo unspecified)
